Assay results from paper PMC3622683, “Purification, Gene Cloning, and Biochemical Characterization of a β-Glucosidase Capable of Hydrolyzing Sesaminol Triglucoside from Paenibacillus sp. KB0549” (PLoS ONE, 2013).

Target: T1, rPSTG (recombinant PSTG, STG-hydrolyzing β-glucosidase) (Paenibacillus relictisesami, UniProt D6RVX0)
T1 construct: full-length 753 aa, 83,298 Da, no signal peptide; expressed from pDEST17 in E. coli BL21-AI, HisTrap purified (tag cleavage not mentioned); likely tetramer, 310 kDa; GH3
T1 sequence (D6RVX0 1-753): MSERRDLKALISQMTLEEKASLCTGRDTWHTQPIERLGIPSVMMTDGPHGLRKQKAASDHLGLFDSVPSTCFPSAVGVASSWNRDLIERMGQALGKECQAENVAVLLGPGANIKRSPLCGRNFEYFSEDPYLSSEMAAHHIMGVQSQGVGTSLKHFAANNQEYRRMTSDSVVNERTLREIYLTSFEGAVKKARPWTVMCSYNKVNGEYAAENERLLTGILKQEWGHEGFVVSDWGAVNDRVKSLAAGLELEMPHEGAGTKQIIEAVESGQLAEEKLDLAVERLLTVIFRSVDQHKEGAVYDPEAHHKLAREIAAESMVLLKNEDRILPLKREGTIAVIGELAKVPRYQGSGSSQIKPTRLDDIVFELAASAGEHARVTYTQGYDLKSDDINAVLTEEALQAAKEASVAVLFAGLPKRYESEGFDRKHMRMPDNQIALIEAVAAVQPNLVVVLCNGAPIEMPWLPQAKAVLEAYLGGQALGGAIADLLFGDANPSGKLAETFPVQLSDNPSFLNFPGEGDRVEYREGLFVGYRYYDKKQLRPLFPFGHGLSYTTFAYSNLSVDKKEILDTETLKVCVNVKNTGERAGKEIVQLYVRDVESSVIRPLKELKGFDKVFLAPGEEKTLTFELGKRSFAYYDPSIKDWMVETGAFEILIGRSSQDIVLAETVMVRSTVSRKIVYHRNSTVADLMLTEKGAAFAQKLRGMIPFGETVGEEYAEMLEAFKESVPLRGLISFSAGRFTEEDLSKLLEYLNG
Assay: p-nitrophenol release, absorbance at […] nm
Format: biochemical
Conditions: pH 7.0, 37°C, potassium phosphate

Km: > 10 mM
Compound: C[C@H]1O[C@@H](Oc2ccc([N+](=O)[O-])cc2)[C@H](O)[C@@H](O)[C@H]1O [pNP-β-D-fucopyranoside]
